Assay results: patent publication US12661404B2, “Methods and materials for tissue ablation” (Mayo Foundation for Medical Education and Research, priority 2020, dated 2026)
Where two headings read alike, the source gives them in different places.

What was measured:
subcutaneous fat tissue = conditions: 25% LATTE mixture subcutaneous
Method: Additional experiments were performed on explanted fat tissue obtained from the groin area from pig in a petri dish submersed in saline (FIG. 10).

VX2 liver tumor = system: VX2 liver tumor
Method: To visualize normal liver parenchyma on CT imaging, rats received a bolus injection of 400 μL of the alkaline earth metal-based nanoparticle suspension, Exitron nano 12000 (Miltenyi Biotec, Auburn, CA) two hours prior to micro-CT scanning. Rats were anesthetized using inhalation of 2-3% isoflurane in 100% 02 at a constant flow rate of 2 L/minute and placed on a cassette equipped with a warming system and continuous gas exchange and integrated real-time motion detection camera. Fixed rat tissues were placed and immobilized using styrofoam beads inside a humidified plastic chamber. […] The 3D image stacks were reconstructed using NRecon software and InstaRecon CBR Server (version: 1.7.4.6, Bruker, Kontich, Belgium) following adjustment of random movements, beam-hardening correction, and ring artifact reduction and smoothing. 3D volume rendering was visualized using CTVox software (version: 3.3. 0 r1383, Bruker, Kontich, Belgium). The stacks were virtually rotated and axially oriented to yield transverse projections of select volume of interest (VOI) using Data Viewer software (Bruker, Kontich, Belgium).

fat cells (adipocytes) = assay: Explanted pig fat tissue incubated with LATTE; conditions: after 1 hour in LATTE solution
[1] = system: pancreas ductal adenocarcinoma (Panc-1) cells; conditions: Panc-1, 24 hours incubation, WST-1
Method: (§1) To determine synergy and the concentration of a chemotherapy agent such as doxorubicin to co-administer with LATTE, cell culture experiments were performed.
(§2) HepG2 human liver cancer cell line (ATCC CRL10741; American Type Culture Collection, Manassas, VA, USA) were cultured in 75 cm^2 flasks using growth medium consisting of low glucose Dulbecco's Modified Eagle Medium (DMEM, ThermoFisher) and 10% heat-inactivated bovine serum that was supplemented with 100 IU penicillin and 10 μg/mL streptomycin (Thermo Fisher Scientific). […] The anticancer activity of LATTE on HepG2 was determined using WST-1 reagent (2-(4-Iodophenyl)-3-(4-nitrophenyl)-5-(2,4-disulfophenyl)-2H-tetrazolium sodium) assay as an indication of viability/cytotoxicity treatment. WST-1 viability assay is based on the reduction of tetrazolium salt, WST-1 to an […] formazan dye by electron transport across the plasma membrane in viable cells that alter the optical density of the media. […] At the end of the incubation period, the medium was discarded, and the wells were rinsed three times with DPBS solution followed by addition of 100 μL growth medium and 10 μL of freshly prepared WST-1 reagent into each well and then incubated for 2 hours inside the 5% CO2 incubator at 37° C. After the incubation period, the optical percent density was measured using a microplate reader at a wavelength of 450 nm (SpectraMax iD5, Molecular Devices, San Jose, CA). Cell viability was calculated relative to control wells that received the growth medium alone. Viability rate was calculated as follows: Viability (%)=[…].

[2] = system: patient derived cholangiocarcinoma, pancreas adenocarcinoma cell lines and HepG2 hepatocellular carcinoma cells; conditions: three cell lines, serially diluted 25-0.048% w/v, 24 or 48 hours
Method: as §1, §2

[3] = system: Cholangiocarcinoma (SNU-478) cells; conditions: SNU-478, 24 hours incubation, WST-1
Method: as §1, §2

[4] = system: freshly resected human tumors; conditions: 25%-LATTE mixed with ICG, 24 hours at 37° C., 12 tumors
Method: The fluorescent intensity and diffusion area were calculated using similar parameters for all tissues. […] LATTE was able to ablate a variety of highly malignant human tumors.
Explanted human cancer tissues were collected following surgical resection and placed in RPMI medium for preservation. […] Near-infrared fluorescent imaging (NIRF) was performed at 5 minutes after injection. […] Tissues were transected to reveal the ablated zone were fixed in 10% buffered formalin, embedded in paraffin, then sectioned and subsequently stained with hematoxylin and eosin for microscopic evaluation.

pig blood = system: pig blood
Method: (§3) The effect of IL on coagulation and cell death in blood was evaluated in vitro. To evaluate the effect of cell death along the margins of the ablation zone, specifically on the effect of IL on inflammatory cells, blood treated with low concentrations of IL was used to simulate concentrations along the ablation margins. To analyze the effect of the ionic liquid on blood coagulation, RBC hemolysis, and immune cells, analyses including rheometry, hemolyses assay, complete blood counts were performed on blood smears following incubation of pig blood aliquots with various concentrations of IL.

pig blood cells = system: pig blood cells
Method: as §3

[5] = system: human hepatocellular carcinoma (Hep-G2) cells; conditions: Hep-G2, 24 hours incubation, WST-1
Method: HepG2 human liver cancer cell line (ATCC CRL10741; American Type Culture Collection, Manassas, VA, USA) were cultured in 75 cm^2 flasks using growth medium consisting of low glucose Dulbecco's Modified Eagle Medium (DMEM, ThermoFisher) and 10% heat-inactivated bovine serum that was supplemented with 100 IU penicillin and 10 μg/mL streptomycin (Thermo Fisher Scientific). […] The anticancer activity of LATTE on HepG2 was determined using WST-1 reagent (2-(4-Iodophenyl)-3-(4-nitrophenyl)-5-(2,4-disulfophenyl)-2H-tetrazolium sodium) assay as an indication of viability/cytotoxicity treatment. WST-1 viability assay is based on the reduction of tetrazolium salt, WST-1 to an insoluble formazan dye by electron transport across the plasma membrane in viable cells that alter the optical density of the media. […] Cell viability was calculated relative to control wells that received the growth medium alone.
All reported values are the means of three replicate experiments with each study having 8 wells per dose level. Plots of the log concentration versus fractional viability for each drug were generated for each study.

Method for pig liver: Ultrasound-guided injection of LATTE solution was performed in euthanized pigs or rabbits. […] Ultrasonography was used to visualize the left liver lobe parenchyma using a high-frequency transducer (A 9-MHz multi-frequency linear probe, ACUSON 52000, Siemens, Germany). The access site position was marked on the skin and a scalpel blade was used to create a small incision in the center of the marked line. The access needle was advanced through the skin incision in front of the transducer parallel its long axis until it reached the desired location then the LATTE mixture was slowly injected over one minute. At 10 minutes post-injection, the liver tissue was harvested and subjected to near-infrared fluorescent imaging (NIRF) (IVIS 200, PerkinElmer, Inc. Waltham, MA) followed by fixation and histologic evaluation.
Injection Images were acquired at 0 and 90 minutes after injection. Pig livers were scanned with a 3T MAGNETOM Skyra MRI (Siemens Healthcare, Erlangen, Germany) with an 18 channel anterior coil in combination with a 32 channel posterior spine coil. […] Scans were acquired at 0 and 90 minutes after injection. Segmentation and volume calculations were acquired using the Materialise 3-Matic and Mimics 3D image processing software (Materialise, Belgium).

Q: Which results are given for choline-geranate [LATTE]?
A: adipocyte ablation in treated zone (histology) (subcutaneous fat tissue): complete ablation of the adipocytes; tumor histology (VX2 liver tumor; compared to saline injected tumors): extensive necrosis; tumor perfusion (Doppler, laser speckle) (VX2 liver tumor; following injection): markedly diminished perfusion; fat depletion from adipocytes (fat cells (adipocytes)): fat was depleted; effective dose (EC50), fractional cell viability [1]: 0.3%; effective concentration that causes 50% cell death (EC50) [2]: 0.18-0.3%; effective dose (EC50), fractional cell viability [3]: 0.2%; tumor tissue histology [4]: marked tissue destruction; liver histology (pig liver; 2 mL of 25% LATTE mixed with ICG): total destruction of tissue architecture; ablation zone size (pig liver; transcutaneous injection in pigs): up to 4 cm; blood coagulation initiation lag time (tlag) (pig blood; 0.78% IL): slight increase in lag time; decrease in storage modulus (G′) at 30 minutes (pig blood; 0.78% IL): ~20%; blood coagulation initiation lag time (tlag) (pig blood; 1.56 wt % IL): significantly extended lag time; drop in storage modulus (G′) at 30 minutes (pig blood; 1.56 wt % IL): 95%; coagulation during 30 minutes testing period (pig blood; 3.12 wt % IL): failed to coagulate; decrease in storage modulus (G′) at 30 minutes (pig blood; 3.12 wt % IL): 100 wt %; red blood cells (RBC) total count (pig blood cells; 0.78, 1.56, 3.12 wt % IL): concentration dependent decrease; white blood cells (WBC) total count (pig blood cells; 0.78, 1.56, 3.12 wt % IL): concentration dependent decrease; lymphocyte count (pig blood cells; 0.78, 1.56, 3.12 wt % IL, compared to control): no change in lymphocyte count; hemolysis test (pig blood cells; 0.78-25 wt % IL): significant increase in hemolysis; hemolysis on stained blood smears (pig blood cells; 3.12 wt % IL): complete hemolysis; effective dose (EC50), fractional cell viability [5]: 0.19%
